One compound from patent US20070293559A1, “Orally Administered Agent For Preventing Or Improving Dry Station Of Skin” (priority 2004, published 2007) can be followed below.

Assay [1] deals with HOS:HR-1 mice. Nature of the assay: Water content of the skin surface (SKICON-200) after oral ingestion in feed. In kind it is in vivo. The settings on record: CE-2 feed containing 0.5% or 1% by weight of hydroxyproline, two to five weeks of feeding, relative to CE-2 group. The protocol: HOS:HR-1 mice (male, 5 weeks old, purchased from SLC Japan) were used in the test. The breeding conditions were that the room temperature was 22±2° C., the humidity was 35±15% and a feed and water were freely ingested.
Each test group consisted of 10 mice. A commercially available powder feed CE-2 (manufactured by Clea Japan) was fed to mice of the first group, CE-2 containing 0.5% by weight of trans-4-hydroxy-L-proline (hereinafter also referred to simply as hydroxyproline; manufactured by Kyowa Hakko Kogyo Co., Ltd.) was fed to mice of the second group, and CE-2 containing 1% by weight of hydroxyproline was fed to mice of the third group.
The water content of the skin surface on the back thigh upper portion of each mouse was measured with SKICON-200 (manufactured by IBS) every one week, from two weeks to five weeks after the start-up of the feeding of each feed. The measurement was conducted ten times for each mouse, and an average value of each mouse was obtained. Further, an average value of each test group was calculated.
The relative epidermal water content was calculated according to the following formula using the average value. Relative epidermal water content (%)=(A2/A1)×100 • A1: Epidermal water content of the first group • A2: Epidermal water content of the second or third group

Assay [2] concerns HOS:HR-1 mice. Nature of the assay: Transepidermal water loss (TEWL) in mice with dry skin induced by special feed. In kind it is in vivo. The settings on record: for TEWL value: right rump, group average. As for the experimental part: HOS:HR-1 mice (female, 4 weeks old, purchased from SLC Japan) were used in the test. The breeding conditions were that the room temperature was 22±2° C., the humidity was 50±5% and a feed and water were freely ingested.
Each test group consisted of 10 mice. A commercially available powder feed CE-2 was fed to mice of the first group, a special feed (manufactured by Nippon Nosan Kogyo K.K.) was fed to mice of the second group, the special feed containing 0.5% by weight of hydroxyproline was fed to mice of the third group, and the special feed containing 1% by weight of hydroxyproline was fed to mice of the fourth group. The dry skin was induced in HOS:HR-1 mice by feeding of the special feed (The journal of international medical research pharmacology, 32, 392-399 (2004)).
A transepidermal water loss (TEWL) value of the right rump of each mouse was measured as an index of a barrier function of stratum corneum at the start-up of the feeding of each feed, after four weeks and after six weeks using Tewameter TM210 (Courage+Khazaka electronic GmbH, Germany), and an average value of each group was calculated.

The structures appear in SMILES notation.

Turning to `O=C(O)[C@@H]1C[C@@H](O)CN1` [hydroxyproline, trans-4-hydroxy-L-proline], the “water content of the skin (relative epidermal water content, FIG. 1)” value in the assay with HOS:HR-1 mice [1] is listed as “markedly improved”. Besides, in the assay on HOS:HR-1 mice [2] (fourth group (1% hydroxyproline in special feed), risk rate of less than 5% defined as significant), the “transepidermal water loss, t-test in comparison with the second group” value is reported as “significant difference”. The TEWL value is reported as 5.07 g/m^2/hour in the assay with HOS:HR-1 mice [2] (fourth group: special feed containing 1% by weight of hydroxyproline, feeding period 0 week (start-up)); 25.07 g/m^2/hour in the assay with HOS:HR-1 mice [2] (fourth group: special feed containing 1% by weight of hydroxyproline, feeding period 4 weeks); 25.40 g/m^2/hour with HOS:HR-1 mice [2] (fourth group: special feed containing 1% by weight of hydroxyproline, feeding period 6 weeks); 4.99 g/m^2/hour with HOS:HR-1 mice [2] (third group: special feed containing 0.5% by weight of hydroxyproline, feeding period 0 week (start-up)); 29.80 g/m^2/hour in the assay with HOS:HR-1 mice [2] (third group: special feed containing 0.5% by weight of hydroxyproline, feeding period 4 weeks); 29.04 g/m^2/hour with HOS:HR-1 mice [2] (third group: special feed containing 0.5% by weight of hydroxyproline, feeding period 6 weeks). Besides, the “barrier function of stratum corneum” value with HOS:HR-1 mice [2] (oral ingestion of hydroxyproline) is “effect of improving the barrier function of stratum corneum”. The “increase in transepidermal water loss” value with HOS:HR-1 mice [2] (third and fourth groups (0.5% and 1% hydroxyproline in special feed) versus second group (special feed)) is listed as “suppressed dependently on the concentration”.
